Data: ChEMBL document CHEMBL1134061, “Synthesis and biological evaluations of condensed pyridine and condensed pyrimidine-based HMG-CoA reductase inhibitors” (Bioorg Med Chem Lett, 2001)

Key:
[1] = biological target: T1, 3-hydroxy-3-methylglutaryl-coenzyme A reductase (Rattus norvegicus) (UniProt P51639); experiment: In vitro rat HMG-CoA reductase inhibitory activity required to inhibit sterol synthesis in cell free system with pravastatin as reference compound
T1 sequence (whole entry): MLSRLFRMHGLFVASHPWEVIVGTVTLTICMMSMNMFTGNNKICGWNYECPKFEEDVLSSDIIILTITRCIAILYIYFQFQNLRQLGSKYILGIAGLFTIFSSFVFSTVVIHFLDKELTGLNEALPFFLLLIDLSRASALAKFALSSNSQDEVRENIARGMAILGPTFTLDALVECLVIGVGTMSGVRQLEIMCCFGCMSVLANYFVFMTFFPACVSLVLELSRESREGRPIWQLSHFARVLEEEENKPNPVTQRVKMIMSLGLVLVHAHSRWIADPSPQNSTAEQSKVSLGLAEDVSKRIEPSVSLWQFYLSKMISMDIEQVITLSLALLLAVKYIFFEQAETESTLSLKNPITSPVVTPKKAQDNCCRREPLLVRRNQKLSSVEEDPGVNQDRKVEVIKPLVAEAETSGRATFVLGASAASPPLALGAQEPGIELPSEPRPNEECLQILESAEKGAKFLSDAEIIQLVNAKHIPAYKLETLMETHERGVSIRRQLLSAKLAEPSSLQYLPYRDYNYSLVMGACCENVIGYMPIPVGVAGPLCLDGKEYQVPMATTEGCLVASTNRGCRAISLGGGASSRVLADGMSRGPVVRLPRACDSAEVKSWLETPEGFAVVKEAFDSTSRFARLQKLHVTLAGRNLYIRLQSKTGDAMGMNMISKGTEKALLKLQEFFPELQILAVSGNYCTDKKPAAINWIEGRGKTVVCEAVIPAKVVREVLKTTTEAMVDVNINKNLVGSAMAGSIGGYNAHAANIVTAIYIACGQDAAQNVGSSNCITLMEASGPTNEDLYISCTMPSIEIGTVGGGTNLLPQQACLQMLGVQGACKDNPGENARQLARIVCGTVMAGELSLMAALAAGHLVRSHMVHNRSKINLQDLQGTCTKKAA

[2] = biological target: T2, 3-hydroxy-3-methylglutaryl-coenzyme A reductase (Homo sapiens) (UniProt P04035); experiment: In vitro HMG-CoA reductase inhibitory activity required to inhibit cellular steroidgenesis in Hep G2 cells (human hepatoma cell line) with pravastatin as reference compound; type: cell-based; details: HepG2
T2 sequence (whole entry): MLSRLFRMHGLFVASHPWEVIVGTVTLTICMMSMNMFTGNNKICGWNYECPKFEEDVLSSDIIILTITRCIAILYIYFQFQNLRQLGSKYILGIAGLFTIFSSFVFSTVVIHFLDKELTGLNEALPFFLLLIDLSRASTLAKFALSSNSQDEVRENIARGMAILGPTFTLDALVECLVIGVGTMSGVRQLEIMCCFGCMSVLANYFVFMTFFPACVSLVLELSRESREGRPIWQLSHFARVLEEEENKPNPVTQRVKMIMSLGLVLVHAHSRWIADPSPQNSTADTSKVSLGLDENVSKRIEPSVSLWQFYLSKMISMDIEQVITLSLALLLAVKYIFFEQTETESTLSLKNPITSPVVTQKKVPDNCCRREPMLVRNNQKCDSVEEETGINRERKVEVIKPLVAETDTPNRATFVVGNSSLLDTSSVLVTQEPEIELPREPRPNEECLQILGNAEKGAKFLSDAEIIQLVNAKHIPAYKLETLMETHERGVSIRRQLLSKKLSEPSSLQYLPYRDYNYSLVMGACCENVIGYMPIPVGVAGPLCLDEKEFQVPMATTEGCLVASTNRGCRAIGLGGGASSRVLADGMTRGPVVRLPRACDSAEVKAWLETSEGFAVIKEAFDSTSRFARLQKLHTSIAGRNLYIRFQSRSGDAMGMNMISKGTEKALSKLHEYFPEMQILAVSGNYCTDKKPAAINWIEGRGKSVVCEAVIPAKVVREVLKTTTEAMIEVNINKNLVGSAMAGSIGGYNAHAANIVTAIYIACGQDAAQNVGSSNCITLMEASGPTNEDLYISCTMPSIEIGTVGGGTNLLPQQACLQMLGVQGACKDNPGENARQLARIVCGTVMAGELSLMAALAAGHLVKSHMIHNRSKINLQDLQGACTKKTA

[3] = biological target: T1, 3-hydroxy-3-methylglutaryl-coenzyme A reductase (Rattus norvegicus); experiment: In vivo hepatic cholesterol synthesis inhibitory activity in male Sprague-Dawley rat after oral administration at a concentration of 2.0 mg/kg; type: functional, organism-based; parameters: dose 2 mg/kg
[4] = biological target: T1, 3-hydroxy-3-methylglutaryl-coenzyme A reductase (Rattus norvegicus); experiment: In vivo hepatic cholesterol synthesis inhibitory activity in male Sprague-Dawley rat after oral administration at a concentration of 0.2 mg/kg; type: functional, organism-based; parameters: dose 0.2 mg/kg

| Relative potency [1] | Relative potency [2] | inhibition [3] | inhibition [4] | Compound |
| --- | --- | --- | --- | --- |
| 154 | 149 | 48.7% |  | COc1ccc(-n2nc(C)c3c(-c4ccc(F)cc4)c(/C=C/[C@@H](O)C[C@@H](O)CC(=O)O)c(C(C)C)nc32)cc1 |
| 55 | 7 |  |  | CC(C)c1nc2c(c(C3CC3)nn2-c2ccccc2)c(-c2ccc(F)cc2)c1/C=C/[C@@H](O)C[C@@H](O)CC(=O)O |
| 12 | 3 | 24.1% | -1.4% | CC(C)c1nc2cc(-c3ccccc3)nn2c(-c2ccc(F)cc2)c1/C=C/[C@@H](O)C[C@@H](O)CC(=O)O |
| 48 | 19 |  |  | CC(C)c1nc2sc3c(c2c(-c2ccc(F)cc2)c1/C=C/[C@@H](O)C[C@@H](O)CC(=O)O)CCCC3 |
| 58 | 49 |  |  | CC(C)c1nc2sc3c(c2c(-c2ccc(F)cc2)c1/C=C/[C@@H](O)C[C@@H](O)CC(=O)O)CCC3 |
| 25 | 3 |  |  | Cc1nn2c(-c3ccc(F)cc3)c(/C=C/[C@@H](O)C[C@@H](O)CC(=O)O)c(C3CC3)nc2c1C |
| 100 | 31 | 86% | 51.8% | Cc1nn(C(C)(C)C)c2nc(C(C)C)c(/C=C/[C@@H](O)C[C@@H](O)CC(=O)O)c(-c3ccc(F)cc3)c12 |
| 42 | 1 | 71.3% | 42.9% | CC(C)c1nc2c(c(C3CC3)nn2C)c(-c2ccc(F)cc2)c1/C=C/[C@@H](O)C[C@@H](O)CC(=O)O |
| 75 | < 1 |  |  | CC(C)(C)n1nc(-c2ccccc2)c2c(-c3ccc(F)cc3)c(/C=C/[C@@H](O)C[C@@H](O)CC(=O)O)c(C3CC3)nc21 |
| 264 | 1 | 19.9% | 3.3% | Cc1nn(-c2ccccc2)c2nc(C(C)C)c(/C=C/[C@@H](O)C[C@@H](O)CC(=O)O)c(-c3ccc(F)cc3)c12 |
| 6 | 1 |  | 21.8% | CC(C)c1cc2nc(C3CC3)c(/C=C/[C@@H](O)C[C@@H](O)CC(=O)O)c(-c3ccc(F)cc3)n2n1 |
| 68 | 22 | 34.2% |  | Cc1cc2c(-c3ccc(F)cc3)c(/C=C/[C@@H](O)C[C@@H](O)CC(=O)O)c(C(C)C)nc2s1 |
| 63 | 17 | 45.1% | 16.4% | Cc1nn(Cc2ccccc2)c2nc(C(C)C)c(/C=C/[C@@H](O)C[C@@H](O)CC(=O)O)c(-c3ccc(F)cc3)c12 |
| < 1 | 1 |  |  | CC(C)c1nc2sc(-c3ccccc3)cc2c(-c2ccc(F)cc2)c1/C=C/[C@@H](O)C[C@@H](O)CC(=O)O |
| 229 | 4 |  |  | Cc1nn(-c2ccccn2)c2nc(C3CC3)c(/C=C/[C@@H](O)C[C@@H](O)CC(=O)O)c(-c3ccc(F)cc3)c12 |
| 170 | 1 |  |  | Cc1noc2nc(C(C)C)c(/C=C/[C@@H](O)C[C@@H](O)CC(=O)O)c(-c3ccc(F)cc3)c12 |
| 228 | 118 | 74.3% | 35.5% | Cc1nn(C)c2nc(C3CC3)c(/C=C/[C@@H](O)C[C@@H](O)CC(=O)O)c(-c3ccc(F)cc3)c12 |
| 98 | 2 |  |  | CC(C)(C)n1nc(C2CC2)c2c(-c3ccc(F)cc3)c(/C=C/[C@@H](O)C[C@@H](O)CC(=O)O)c(C3CC3)nc21 |
| 168 | 11 | 72.2% | 4.5% | Cc1nn(C(C)(C)C)c2nc(C3CC3)c(/C=C/[C@@H](O)C[C@@H](O)CC(=O)O)c(-c3ccc(F)cc3)c12 |
| 52 | 62 |  |  | CC(C)c1cc2c(-c3ccc(F)cc3)c(/C=C/[C@@H](O)C[C@@H](O)CC(=O)O)c(C(C)C)nc2s1 |
| 71 | 15 | 48.1% | 41.1% | Cc1nn(C)c2nc(C(C)C)c(/C=C/[C@@H](O)C[C@@H](O)CC(=O)O)c(-c3ccc(F)cc3)c12 |
| 4 | < 1 |  |  | CC(C)c1nc2cc(C(C)(C)C)nn2c(-c2ccc(F)cc2)c1/C=C/[C@@H](O)C[C@@H](O)CC(=O)O |
| 23 | 2 |  |  | O=C(O)C[C@H](O)C[C@H](O)/C=C/c1c(C2CC2)nc2sc3c(c2c1-c1ccc(F)cc1)CCCCC3 |

Further lines, the molecule ahead of its results:

| Compound | Relative potency [1] | Relative potency [2] | inhibition [3] | inhibition [4] |
| --- | --- | --- | --- | --- |
| CCc1c(C)sc2nc(C3CC3)c(/C=C/[C@@H](O)C[C@@H](O)CC(=O)O)c(-c3ccc(F)cc3)c12 | 65 | 38 |  |  |
| CC(C)c1nc2c(cnn2-c2ccccc2)c(-c2ccc(F)cc2)c1/C=C/[C@@H](O)C[C@@H](O)CC(=O)O | 228 | 10 |  |  |
| CC(C)c1nc2cc(-c3ccco3)nn2c(-c2ccc(F)cc2)c1/C=C/[C@@H](O)C[C@@H](O)CC(=O)O | 13 | < 1 |  |  |
| CC(C)c1nc2c(c(-c3ccc(Cl)cc3)nn2C)c(-c2ccc(F)cc2)c1/C=C/[C@@H](O)C[C@@H](O)CC(=O)O | 93 | 26 |  |  |
| O=C(O)C[C@H](O)C[C@H](O)/C=C/c1c(C2CC2)nc2sc3c(c2c1-c1ccc(F)cc1)CCC3 | 63 | 60 |  |  |
| Cc1cc2nc(C3CC3)c(/C=C/[C@@H](O)C[C@@H](O)CC(=O)O)c(-c3ccc(F)cc3)n2n1 | 24 | 2 | 6.5% |  |
| Cn1nc(-c2ccccc2)c2c(-c3ccc(F)cc3)c(/C=C/[C@@H](O)C[C@@H](O)CC(=O)O)c(C3CC3)nc21 | 300 | 14 | 11.5% |  |
| Cc1nn2c(-c3ccc(F)cc3)c(/C=C/[C@@H](O)C[C@@H](O)CC(=O)O)c(C3CC3)nc2c1-c1ccccc1 | 64 | 3 |  |  |
| CCc1c(C)sc2nc(C(C)C)c(/C=C/[C@@H](O)C[C@@H](O)CC(=O)O)c(-c3ccc(F)cc3)c12 | 35 | 51 | 20.8% | 7.9% |
| Cc1cc2nc(C(C)C)c(/C=C/[C@@H](O)C[C@@H](O)CC(=O)O)c(-c3ccc(F)cc3)n2n1 | 27 | 3 |  | -6.1% |
| CC(C)c1nc2onc(-c3ccccc3)c2c(-c2ccc(F)cc2)c1/C=C/[C@@H](O)C[C@@H](O)CC(=O)O | 83 | 1 | 52.3% | 33.7% |
| CCn1ncc2c(-c3ccc(F)cc3)c(/C=C/[C@@H](O)C[C@@H](O)CC(=O)O)c(C(C)C)nc21 | 71 | 39 |  |  |
| Cc1c2c(-c3ccc(F)cc3)c(/C=C/[C@@H](O)C[C@@H](O)CC(=O)O)c(C(C)C)nc2nn1-c1ccccc1 | 162 | 12 |  |  |
| Cc1sc2nc(C(C)C)c(/C=C/[C@@H](O)C[C@@H](O)CC(=O)O)c(-c3ccc(F)cc3)c2c1-c1ccccc1 | 1 | < 1 |  |  |
| CC(C)c1nc2c3c(nn2c(-c2ccc(F)cc2)c1/C=C/[C@@H](O)C[C@@H](O)CC(=O)O)CCCC3 | 30 | 1 |  |  |
